Read-outs that look alike come from different tables or passages of the source.
How the values were obtained:
[1] = test system: human esophageal carcinoma cell line OE33; assay: MTT Cell Proliferation Assay in OE33; format: cell-based
Protocol: To test the activity of tris(8-quinolinolato)gallium(III), ATCC's MTT Cell Proliferation Assay® was performed using human esophageal carcinoma cell line OE33. Stock cultures were allowed to grow to 70-80% confluence for this study. The anti-proliferative activity of tris(8-quinolinolato)gallium(III) against the indicated cell line was evaluated in vitro using the ATCC's MTT Cell Proliferation Assay (Catalog No. 30-1010K). OE33 plates were seeded with 1,200 cells/well, and the cells were grown in RPMI1640 medium containing 1% (1M HEPES), 1% sodium pyruvate, 10% FBS and 1% penicillin/strep/glutamine. Cultures were maintained in a 37° C. humidified 5% CO2/95% air atmosphere. The cells were treated with tris(8-quinolinolato)gallium(III) at 1,000 μM, or a series of 4×dilutions thereof (250 μM, 62.5 μM, etc.). […] The plates were left overnight at room temperature in the dark and was read on a plate reader using SoftMax® Pro (version 5.2, Molecular Devices).
The absorbance data was analyzed as follows: Absorbance values were converted to Percent of Control and plotted against test agent concentrations for IC50 calculations using SoftMax® Pro (version 5.2, Molecular Devices). […] Percent of Control values were calculated by dividing the absorbance values for each test well by the No Drug Control average (column 11 values; cells+vehicle control) and multiplying by 100. […]

[2] = test system: human gastric cancer cell line NCI-N87; assay: MTT Cell Proliferation Assay in NCI-N87; format: cell-based
Protocol: To test the activities of tris(8-quinolinolato)gallium(III), ATCC's MTT Cell Proliferation Assay® was performed using human gastric cancer cell line NCI-N87 (differentiated carcinoma). Stock cultures were allowed to grow to 70-80% confluence for this study. The anti-proliferative activity of tris(8-quinolinolato)gallium(III), against the indicated cell line was evaluated in vitro using the ATCC's MTT Cell Proliferation Assay (Catalog No. 30-1010K). NCI-N87 was grown using RPMI1640 (Cell Gro 10-040-CV), with 1% of 1M HEPES, 1% sodium pyruvate, 1% of 45% glucose solution, 10% of heat-inactivated FBS and 1% of pen/strep/glutamine. NCI-N87 cell plates were seeded with 20E+03 cells/well and treated with tris(8-quinolinolato)gallium(III) at 1,000 μM, or a series of 4×dilutions thereof (250 μM, 62.5 μM, etc.). 100 μl of medium was removed from each well at 72 hours post-treatment and 10 μl MTT reagent was added to each well. The plates were incubated plate at 37° C. for 4 hours and then 100 μl of detergent was added. The plates were left overnight at room temperature in the dark and was read on a plate reader using SoftMax® Pro (version 5.2, Molecular Devices).
The absorbance data was analyzed as follows: Absorbance values were converted to Percent of Control and plotted against test agent concentrations for IC50 calculations using SoftMax® Pro (version 5.2, Molecular Devices). The plate blank signal average was subtracted from all wells prior to calculating the Percent of Control. Percent of Control values were calculated by dividing the absorbance values for each test well by the No Drug Control average (column 11 values; cells+vehicle control) and multiplying by 100. Plots of Compound Concentration versus Percent of Control were analyzed using the 4-parameter equation to obtain IC50 values and other parameters that describe the sigmoidal dose response curve.
The IC50 value for the test agents was estimated by curve-fitting the data using the following four parameter-logistic equation:
wherein “Top” is the maximal % of control absorbance (100%) (Value “A” in FIG. 1, 88.3), “Bottom” is the minimal % of control absorbance at the highest agent concentration (down to zero) (Value “D” in FIG. 1, 20.8), Y is the Percent of Control absorbance, X is the test agent Concentration, IC50 is the concentration of agent that inhibits cell growth by 50% compared to the control cells (Value “C” in FIG. 1, 8.42e+03), n is the slope of the curve (Value “B” in FIG. 1, 2.31).

[3] = NCI-N87, four parameter-logistic fit

Structure (SMILES): [Ga+3].[O-]c1cccc2cccnc12.[O-]c1cccc2cccnc12.[O-]c1cccc2cccnc12 [tris(8-quinolinolato)gallium(III)]
- growth inhibition in MTT assay (FIG. 2) ([1]; OE33): dose-dependent growth inhibition
- IC50 ([1]; OE33 cell line, MTT, 72 hours post-treatment, read-out: IC50 (concentration of agent that inhibits cell growth by 50% compared to the control cells)): 3.06 µM
- growth inhibition in MTT assay (FIG. 1) ([2]; NCI-N87): dose-dependent growth inhibition
- Bottom, minimal % of control absorbance at the highest agent concentration (Value "D" in FIG. 1) [2, 3]: 20.8 % of control
- Top, maximal % of control absorbance (Value "A" in FIG. 1) [2, 3]: 88.3 % of control
- IC50 ([2]; NCI-N87, four parameter-logistic fit, X axis of FIG. 1 in nM, read-out: IC50 (Value "C" in FIG. 1)): 8420 nM
- IC50 ([2]; NCI-N87 cell line, MTT, 72 hours post-treatment, read-out: IC50 (concentration of agent that inhibits cell growth by 50% compared to the control cells)): 8420 nM

Source: US20130324513A1, “METHOD FOR TREATING ESOPHAGEAL CANCER” (Niiki Pharma Acquisition Corp. 2, priority 2010, published 2013)
